Here are results for 17 molecules from US9102688B2, “Sulfonaminoquinoline hepcidin antagonists” (Vifor (International) AG, priority 2011, dated 2015).

The target in the test is T1, human ferroportin (Homo sapiens, UniProt Q9NP59).
T1 construct: expressed in transfected cells
T1 sequence (Q9NP59 1-571): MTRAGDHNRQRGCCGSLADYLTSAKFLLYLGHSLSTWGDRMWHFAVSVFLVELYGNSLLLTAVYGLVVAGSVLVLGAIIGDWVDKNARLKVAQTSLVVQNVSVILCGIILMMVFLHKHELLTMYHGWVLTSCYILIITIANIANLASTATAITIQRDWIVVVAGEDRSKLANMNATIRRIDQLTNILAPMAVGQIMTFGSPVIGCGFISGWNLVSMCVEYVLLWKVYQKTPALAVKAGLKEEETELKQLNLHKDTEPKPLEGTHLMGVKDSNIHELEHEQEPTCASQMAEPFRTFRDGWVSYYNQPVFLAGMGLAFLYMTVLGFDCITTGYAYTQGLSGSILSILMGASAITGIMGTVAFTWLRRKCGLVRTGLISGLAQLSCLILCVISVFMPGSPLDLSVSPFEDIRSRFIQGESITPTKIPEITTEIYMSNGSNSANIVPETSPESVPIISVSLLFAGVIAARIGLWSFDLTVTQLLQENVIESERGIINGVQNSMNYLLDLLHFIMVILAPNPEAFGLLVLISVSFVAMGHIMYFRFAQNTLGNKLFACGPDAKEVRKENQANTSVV
Kind of test: ferroportin internalization assay (inhibition of hepcidin-induced internalization of Fpn). As to conditions: MDCK-FPN-HaloTag cells, 100 nM hepcidin, overnight incubation; concentration range from 0.04 to 40 μM. In kind it is cell-based. The essentials:
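MDCK cells stably expressing human ferroportin–HaloTag were labelled with TMR ligand, then incubated overnight at 37 °C with compound plus 100 nM hepcidin (final). After fixation and nuclear staining, confocal imaging quantified membrane Fpn fluorescence to measure blocking of hepcidin-induced internalization.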
`O=C(OC1CCCC1)c1ccc2c(c1)-c1cc(Cl)c3cccnc3c1NS2(=O)=O` [Example 533, 12-Chloro-6,6-dioxo-5,6-dihydro-6λ*6*-thia-4,5-diaza-chrysene-9-carboxylic acid cyclopentyl ester] displayed an IC50 of 0.99 µM. Next, `CNC(=O)c1ccnc2c(NS(=O)(=O)c3ccccc3)cccc12` [Example 538, 8-Benzenesulfonylamino-quinoline-4-carboxylic acid methylamide]: 6.24 µM; `NC(=O)c1ccnc2c(NS(=O)(=O)c3ccccc3)cccc12` [Example 539, 8-Benzenesulfonylamino-quinoline-4-carboxylic acid amide]: 10.4 µM; `CN(C)C(=O)c1ccnc2c3c(ccc12)-c1ccccc1S(=O)(=O)N3` [Example 541, 6,6-Dioxo-5,6-dihydro-6λ*6*-thia-4,5-diaza-chrysene-1-carboxylic acid dimethylamide]: 21 µM. `CNC(=O)c1ccnc2c3c(ccc12)-c1ccccc1S(=O)(=O)N3` [Example 542, 6,6-Dioxo-5,6-dihydro-6λ*6*-thia-4,5-diaza-chrysene-1-carboxylic acid methylamide] yielded an IC50 of 4.77 µM. Compared with the last molecule, the IC50 is about 4.4-fold lower. In the case of `O=C(NCCN1CCCCC1)c1ccnc2c3c(ccc12)-c1ccccc1S(=O)(=O)N3` [Example 544, 6,6-Dioxo-5,6-dihydro-6λ*6*-thia-4,5-diaza-chrysene-1-carboxylic acid (2-piperidin-1-yl-ethyl)-amide] it was 2 µM; in that of `O=S1(=O)Nc2c(cc(Br)c3cccnc23)-c2ccccc21` [Example 545, 12-Bromo-5H-6-thia-4,5-diaza-chrysene 6,6-dioxide], 12.6 µM.

For `CN(C)CCNc1cc2c(c3ncccc13)NS(=O)(=O)c1ccccc1-2` [Example 546, N′-(6,6-Dioxo-5,6-dihydro-6λ*6*-thia-4,5-diaza-chrysen-12-yl)-N,N-dimethyl-ethane-1,2-diamine], half-maximal inhibition (IC50) required 9.98 µM. The IC50 values of the last two molecules are within 1.5-fold of each other.

Regarding `O=S1(=O)Nc2c(cc(NCCN3CCOCC3)c3cccnc23)-c2ccccc21` [Example 547, (6,6-Dioxo-5,6-dihydro-6λ*6*-thia-4,5-diaza-chrysen-12-yl)-(2-morpholin-4-yl-ethyl)-amine], 22 µM corresponded to half-maximal inhibition (IC50). Next, `COCCNc1cc2c(c3ncccc13)NS(=O)(=O)c1ccccc1-2` [Example 548, (6,6-Dioxo-5,6-dihydro-6λ*6*-thia-4,5-diaza-chrysen-12-yl)-(2-methoxy-ethyl)-amine]: 2.83 µM; `O=S1(=O)Nc2c(cc(N3CCOCC3)c3cccnc23)-c2ccccc21` [Example 549, 12-Morpholin-4-yl-5H-6-thia-4,5-diaza-chrysene 6,6-dioxide]: 1.14 µM. In the case of `O=S1(=O)Nc2c(cc(N3CCCCC3)c3cccnc23)-c2ccccc21` [Example 551, 12-Piperidin-1-yl-5H-6-thia-4,5-diaza-chrysene 6,6-dioxide], inhibition was half-maximal at 1.56 µM (IC50). Turning to `CN(C)CCN(C)c1cc2c(c3ncccc13)NS(=O)(=O)c1ccccc1-2` [Example 552, N-(6,6-Dioxo-5,6-dihydro-6λ*6*-thia-4,5-diaza-chrysen-12-yl)-N,N′,N′-trimethyl-ethane-1,2-diamine], the half-inhibitory concentration (IC50) is 5 µM.

Turning to `O=S1(=O)Nc2c(cc(N3CCCC3)c3cccnc23)-c2ccccc21` [Example 553, 12-Pyrrolidin-1-yl-5H-6-thia-4,5-diaza-chrysene 6,6-dioxide], 4.36 µM corresponded to half-maximal inhibition (IC50). In the case of `COCCN(C)c1cc2c(c3ncccc13)NS(=O)(=O)c1ccccc1-2` [Example 554, (6,6-Dioxo-5,6-dihydro-6λ*6*-thia-4,5-diaza-chrysen-12-yl)-(2-methoxy-ethyl)-methyl-amine] it was 0.55 µM.

Molecule `CN(C)CCOc1cc2c(c3ncccc13)NS(=O)(=O)c1ccccc1-2` [Example 562, [2-(6,6-Dioxo-5,6-dihydro-6λ*6*-thia-4,5-diaza-chrysen-12-yloxy)-ethyl]-dimethyl-amine] displayed an IC50 of 2.76 µM.

In the case of `COc1cc2c(c3ncccc13)NS(=O)(=O)c1ccc(C(F)(F)F)cc1-2` [Example 589, 12-Methoxy-9-trifluoromethyl-5H-6-thia-4,5-diaza-chrysene 6,6-dioxide], the IC50 turned out to be 0.96 µM.

A word on the IC50: it is the concentration needed to halve the response being measured. Lower therefore signals higher potency.
